We go through two molecules from publication PMC9558053, “Development of a novel high-throughput screen for the identification of new inhibitors of protein S-acylation” (The Journal of Biological Chemistry, 2022).

For experiment [1], the target named is T1, human zDHHC3 (Homo sapiens, UniProt Q9NYG2).
T1 construct: expressed in transfected cells; host or cells: HEK293T
T1 sequence (Q9NYG2 1-299): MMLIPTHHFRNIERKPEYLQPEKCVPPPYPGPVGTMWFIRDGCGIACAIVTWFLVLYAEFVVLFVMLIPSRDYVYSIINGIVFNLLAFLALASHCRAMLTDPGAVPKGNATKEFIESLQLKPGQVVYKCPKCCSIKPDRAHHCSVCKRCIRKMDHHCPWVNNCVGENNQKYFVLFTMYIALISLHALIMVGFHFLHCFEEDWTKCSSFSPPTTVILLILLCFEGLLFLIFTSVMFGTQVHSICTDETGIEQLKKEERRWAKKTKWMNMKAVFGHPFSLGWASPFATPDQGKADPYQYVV
As to the kind of experiment: GFP-SNAP25b S-acylation in HEK293T cells co-expressing zDHHC3. The format is cell-based. The following applies: in cellulo HEK293T, compound 25 μM; for inhibition at 25 µM: HEK-293T, read-out: SNAP25 S-acylation inhibition (%), zDHHC3. As to the method:
(§1) We next investigated whether the identified compounds were effective at inhibiting zDHHC enzyme isoforms other than zDHHC2 (Fig. 6 and Table 1). […] We therefore treated cells coexpressing GFP-SNAP25 and each of these zDHHC enzymes with 25 μM of TTZ-1 and TTZ-2 and studied the subsequent effect on SNAP25 S-acylation. […] Importantly, the level of enzyme expression was unaffected by the compounds. […] As any major differences in the expression levels of the different enzymes could in theory contribute to the apparent differential effects of TTZ-1 and TTZ-2, we directly compared the expression of zDHHC2, zDHHC3, zDHHC7, zDHHC15, and zDHHC17 when transfected in HEK293T cells together with GFP-SNAP25.
Figure 6 Activity of TTZ-1 and TTZ-2 against SNAP25 S-acylation by human zDHHC2, zDHHC3, zDHHC7, zDHHC15, and zDHHC17 expressed in mammalian cells.A–E, HEK293T cells were transfected with a plasmid encoding GFP-SNAP25b together with either a control plasmid pEF-BOS-HA (pEF) or a plasmid encoding either HA-tagged human zDHHC2 (zD2) (A), zDHHC3 (zD3) (B), zDHHC7 (zD7) (C), zDHHC15 (zD15) (D), or zDHHC17 (zD17) (E) for 24 h. Cells were then preincubated for 4 h with TTZ-1 or TTZ-2 (25 μM final) or DMSO control before metabolic labeling with 100 μM C16:0-azide for 4 h. Cells were lysed, and proteins having incorporated C16:0-azide were labeled by click chemistry with an alkyne-IR800 dye. Protein samples were then resolved by SDS-PAGE and transferred to nitrocellulose membranes that were first stained with an infrared-680 total protein stain. Membranes were then destained and probed with an anti-HA antibody (IR680), followed by an anti-GFP antibody (IR680). Representative images are shown, and panels are presented in the following order (from top to bottom): click chemistry signal (Click [IR800]), GFP and HA immunoblots (IR680), and Total Protein Stain (IR680). […] Three independent experiments were performed either in duplicate or in triplicate, and the quantification data were gathered on the graphs below each set of membranes. […]

Experiment [2] deals with T2, human zDHHC17 (Homo sapiens, UniProt Q8IUH5).
T2 construct: expressed in transfected cells; host or cells: HEK293T
Briefly: GFP-SNAP25b S-acylation in HEK293T cells co-expressing zDHHC17. The format is cell-based. The conditions noted are these: in cellulo HEK293T, compound 25 μM; for inhibition at 25 µM: HEK-293T, read-out: SNAP25 S-acylation inhibition (%), zDHHC17; for SNAP25 S-acylation inhibition (%), zDHHC17: 25 µM. The method, then:
as §1
Figure 6 Activity of TTZ-1 and TTZ-2 against SNAP25 S-acylation by human zDHHC2, zDHHC3, zDHHC7, zDHHC15, and zDHHC17 expressed in mammalian cells.A–E, HEK293T cells were transfected with a plasmid encoding GFP-SNAP25b together with either a control plasmid pEF-BOS-HA (pEF) or a plasmid encoding either HA-tagged human zDHHC2 (zD2) (A), zDHHC3 (zD3) (B), zDHHC7 (zD7) (C), zDHHC15 (zD15) (D), or zDHHC17 (zD17) (E) for 24 h. Cells were then preincubated for 4 h with TTZ-1 or TTZ-2 (25 μM final) or DMSO control before metabolic labeling with 100 μM C16:0-azide for 4 h. Cells were lysed, and proteins having incorporated C16:0-azide were labeled by click chemistry with an alkyne-IR800 dye. Protein samples were then resolved by SDS-PAGE and transferred to nitrocellulose membranes that were first stained with an infrared-680 total protein stain. Membranes were then destained and probed with an anti-HA antibody (IR680), followed by an anti-GFP antibody (IR680). Representative images are shown, and panels are presented in the following order (from top to bottom): click chemistry signal (Click [IR800]), GFP and HA immunoblots (IR680), and Total Protein Stain (IR680). Positions of the molecular mass markers (in kilodalton) are indicated on the right side of the membranes. Three independent experiments were performed either in duplicate or in triplicate, and the quantification data were gathered on the graphs below each set of membranes. […] Filled circles represent individual samples. […] Filled circles represent individual samples. Statistical analysis (ANOVA) was performed to test whether there was a significant difference between the zDHHC expression of cells treated with DMSO as a control versus similar samples treated with TTZ-1 or TTZ-2 (∗∗p < 0.01). F, samples from A, B, C, D, and E (expressing GFP-SNAP25 and HA-tagged zDHHC enzymes and treated with DMSO) were loaded on an SDS-PAGE gel and transferred to a nitrocellulose membrane. The membrane was probed for the expression of the HA-tagged enzymes with an anti-HA antibody (IR680). […]

T2 sequence (Q8IUH5 whole entry): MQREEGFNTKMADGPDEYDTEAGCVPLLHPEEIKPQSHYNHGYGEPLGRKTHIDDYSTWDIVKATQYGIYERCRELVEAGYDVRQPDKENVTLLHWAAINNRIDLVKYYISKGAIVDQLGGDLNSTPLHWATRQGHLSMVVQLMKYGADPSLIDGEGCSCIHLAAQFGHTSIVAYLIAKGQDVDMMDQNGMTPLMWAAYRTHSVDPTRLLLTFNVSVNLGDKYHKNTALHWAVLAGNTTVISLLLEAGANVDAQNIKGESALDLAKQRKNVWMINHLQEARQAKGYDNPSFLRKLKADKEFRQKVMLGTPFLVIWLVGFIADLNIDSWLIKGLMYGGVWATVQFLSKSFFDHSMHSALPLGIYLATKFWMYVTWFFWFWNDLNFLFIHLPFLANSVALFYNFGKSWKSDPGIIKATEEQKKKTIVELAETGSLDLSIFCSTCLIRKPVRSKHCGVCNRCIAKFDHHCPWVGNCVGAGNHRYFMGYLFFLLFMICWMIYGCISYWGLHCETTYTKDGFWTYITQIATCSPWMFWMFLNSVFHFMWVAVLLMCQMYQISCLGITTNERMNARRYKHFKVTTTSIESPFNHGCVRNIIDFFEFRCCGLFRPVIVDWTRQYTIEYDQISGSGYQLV

With `O=C(Nc1cccc2c1OC(c1nnn[nH]1)CN2)c1ccc(OCCCCc2ccccc2)cc1` (stereo not shown) [TTZ-2, N-(2-(1H-Tetrazol-5-yl)-3,4-dihydro-2H-benzo[b][1,4]oxazin-8-yl)-4-(4-phenylbutoxy)benzamide], the inhibition at 25 µM in experiment [1] is 19 ± 3%. Also, in experiment [2], the inhibition at 25 µM was in the range of 35 to 40% and the “SNAP25 S-acylation inhibition (%), zDHHC17” value was found to be 39 ± 7%.
On to `CCCCCCCOc1ccc(C(=O)Nc2cccc3c2OC(c2nnn[nH]2)CN3)cc1` (stereo not shown) [TTZ-1, N-(2-(1H-Tetrazol-5-yl)-3,4-dihydro-2H-benzo[b][1,4]oxazin-8-yl)-4-(heptyloxy)benzamide], for which, in experiment [1], the inhibition at 25 µM is 9 ± 4% and the “SNAP25 S-acylation inhibition (%), zDHHC3” value was “no significant effect”. Also, in experiment [2], the inhibition at 25 µM is 35 to 40% and the “SNAP25 S-acylation inhibition (%), zDHHC17” value is recorded as 36 ± 7%.
